In the supplement of paper PMC10307832:

How the values were obtained:
Assay in all cases: relative viability (nuclei count vs DMSO), 5 days (fraction); higher = more cells survive
NCI-H596 = test system: NCI-H596
In short: (§1)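 Cells from lung cancer lines were seeded into 1536-well plates and, one day later, dosed by pin tool. Treatments were either a single drug or a fixed dose of an anchor drug with five library-drug doses (not always all listed) in √10 steps. After 5 days, nuclei were stained in a one-step fixation (final 0.05% Triton X-100, 1% formaldehyde, 1 ug/ml Hoechst) and counted on 4× images, and relative viability is the treated-to-vehicle nuclei ratio, as the median of duplicate plates.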

NCI-H2023 = test system: NCI-H2023
In short: as §1

NCI-H3122 = test system: NCI-H3122
In short: as §1

NCI-H2009 = test system: NCI-H2009
In short: as §1

PC-14 = test system: PC-14
In short: as §1

A-427 = test system: A-427
In short: as §1

NCI-H1793 = test system: NCI-H1793
In short: as §1

NCI-H650 = test system: NCI-H650
In short: as §1

SK-LU-1 = test system: SK-LU-1
In short: as §1

PC-3 [JPC-3] = test system: PC-3 [JPC-3]
In short: as §1

NCI-H1975 = test system: NCI-H1975
In short: as §1

NCI-H460 = test system: NCI-H460
In short: as §1

NCI-H1915 = test system: NCI-H1915
In short: as §1

HCC-15 = test system: HCC-15
In short: as §1

HCC-366 = test system: HCC-366
In short: as §1

NCI-H1437 = test system: NCI-H1437
In short: as §1

NCI-H2405 = test system: NCI-H2405
In short: as §1

LXF-289 = test system: LXF-289
In short: as §1

NCI-H441 = test system: NCI-H441
In short: as §1

IA-LM = test system: IA-LM
In short: as §1

UMC-11 = test system: UMC-11
In short: as §1

H3255 = test system: H3255
In short: as §1

NCI-H1755 = test system: NCI-H1755
In short: as §1

HARA = test system: HARA
In short: as §1

SMILES: CCCCCCCCCCCC1=C(O)C(=O)C=C(O)C1=O [Embelin] + C[C@]1(O)C[C@@H](c2nc(-c3ccc4ccc(-c5ccccc5)nc4c3)c3c(N)nccn32)C1 [Linsitinib] (partner 1 µM)
- relative viability (NCI-H596; first compound 0.08 µM): 1.11
- relative viability (NCI-H596; first compound 0.8 µM): 1.14
- relative viability (NCI-H596; first compound 2.53 µM): 1.25
- relative viability (NCI-H596; first compound 8 µM): 1.05
- relative viability (NCI-H2023; first compound 0.08 µM): 0.707
- relative viability (NCI-H2023; first compound 0.8 µM): 0.66
- relative viability (NCI-H2023; first compound 2.53 µM): 0.794
- relative viability (NCI-H2023; first compound 8 µM): 0.609
- relative viability (NCI-H3122; first compound 0.08 µM): 1.01
- relative viability (NCI-H3122; first compound 0.8 µM): 0.946
- relative viability (NCI-H3122; first compound 2.53 µM): 1.01
- relative viability (NCI-H3122; first compound 8 µM): 1.12
- relative viability (NCI-H2009; first compound 0.08 µM): 1.24
- relative viability (NCI-H2009; first compound 0.8 µM): 1.3
- relative viability (NCI-H2009; first compound 2.53 µM): 1.21
- relative viability (NCI-H2009; first compound 8 µM): 1.12
- relative viability (PC-14; first compound 0.08 µM): 0.921
- relative viability (PC-14; first compound 0.8 µM): 1
- relative viability (PC-14; first compound 2.53 µM): 1.06
- relative viability (PC-14; first compound 8 µM): 0.972
- relative viability (A-427; first compound 0.08 µM): 1.11
- relative viability (A-427; first compound 0.8 µM): 1.12
- relative viability (A-427; first compound 2.53 µM): 1.12
- relative viability (A-427; first compound 8 µM): 1.09
- relative viability (NCI-H1793; first compound 0.08 µM): 0.736
- relative viability (NCI-H1793; first compound 0.8 µM): 1.15
- relative viability (NCI-H1793; first compound 2.53 µM): 1.5
- relative viability (NCI-H1793; first compound 8 µM): 0.853
- relative viability (NCI-H650; first compound 0.08 µM): 0.812
- relative viability (NCI-H650; first compound 0.8 µM): 1.41
- relative viability (NCI-H650; first compound 2.53 µM): 0.653
- relative viability (NCI-H650; first compound 8 µM): 0.716
- relative viability (SK-LU-1; first compound 0.08 µM): 1.17
- relative viability (SK-LU-1; first compound 0.8 µM): 1.28
- relative viability (SK-LU-1; first compound 2.53 µM): 1.1
- relative viability (SK-LU-1; first compound 8 µM): 0.993
- relative viability (PC-3 [JPC-3]; first compound 0.08 µM): 0.972
- relative viability (PC-3 [JPC-3]; first compound 0.8 µM): 0.967
- relative viability (PC-3 [JPC-3]; first compound 2.53 µM): 0.947
- relative viability (PC-3 [JPC-3]; first compound 8 µM): 0.983
- relative viability (NCI-H1975; first compound 0.08 µM): 0.976
- relative viability (NCI-H1975; first compound 0.8 µM): 0.994
- relative viability (NCI-H1975; first compound 2.53 µM): 1.04
- relative viability (NCI-H1975; first compound 8 µM): 0.973
- relative viability (NCI-H460; first compound 0.08 µM): 0.808
- relative viability (NCI-H460; first compound 0.8 µM): 0.988
- relative viability (NCI-H460; first compound 2.53 µM): 1.18
- relative viability (NCI-H460; first compound 8 µM): 0.69
- relative viability (NCI-H1915; first compound 0.08 µM): 1.17
- relative viability (NCI-H1915; first compound 0.8 µM): 1.11
- relative viability (NCI-H1915; first compound 2.53 µM): 1.13
- relative viability (NCI-H1915; first compound 8 µM): 1.12
- relative viability (HCC-15; first compound 0.08 µM): 0.922
- relative viability (HCC-15; first compound 0.8 µM): 0.895
- relative viability (HCC-15; first compound 2.53 µM): 0.996
- relative viability (HCC-15; first compound 8 µM): 0.905
- relative viability (HCC-366; first compound 0.08 µM): 0.697
- relative viability (HCC-366; first compound 0.8 µM): 0.726
- relative viability (HCC-366; first compound 2.53 µM): 0.846
- relative viability (HCC-366; first compound 8 µM): 0.49
- relative viability (NCI-H1437; first compound 0.08 µM): 1.01
- relative viability (NCI-H1437; first compound 0.8 µM): 1.1
- relative viability (NCI-H1437; first compound 2.53 µM): 1.24
- relative viability (NCI-H1437; first compound 8 µM): 0.76
- relative viability (NCI-H2405; first compound 0.08 µM): 0.978
- relative viability (NCI-H2405; first compound 0.8 µM): 1.16
- relative viability (NCI-H2405; first compound 2.53 µM): 0.973
- relative viability (NCI-H2405; first compound 8 µM): 0.92
- relative viability (LXF-289; first compound 0.08 µM): 0.991
- relative viability (LXF-289; first compound 0.8 µM): 0.957
- relative viability (LXF-289; first compound 2.53 µM): 1
- relative viability (LXF-289; first compound 8 µM): 1.01
- relative viability (NCI-H441; first compound 0.08 µM): 0.598
- relative viability (NCI-H441; first compound 0.8 µM): 0.559
- relative viability (NCI-H441; first compound 2.53 µM): 0.539
- relative viability (NCI-H441; first compound 8 µM): 0.622
- relative viability (IA-LM; first compound 0.08 µM): 0.425
- relative viability (IA-LM; first compound 0.8 µM): 0.799
- relative viability (IA-LM; first compound 2.53 µM): 0.536
- relative viability (IA-LM; first compound 8 µM): 0.241
- relative viability (UMC-11; first compound 0.08 µM): 1.03
- relative viability (UMC-11; first compound 0.8 µM): 1.08
- relative viability (UMC-11; first compound 2.53 µM): 1.11
- relative viability (UMC-11; first compound 8 µM): 0.984
- relative viability (H3255; first compound 0.08 µM): 1
- relative viability (H3255; first compound 0.8 µM): 1.23
- relative viability (H3255; first compound 2.53 µM): 0.931
- relative viability (H3255; first compound 8 µM): 0.922
- relative viability (NCI-H1755; first compound 0.08 µM): 1.03
- relative viability (NCI-H1755; first compound 0.8 µM): 1.06
- relative viability (NCI-H1755; first compound 2.53 µM): 1.07
- relative viability (NCI-H1755; first compound 8 µM): 0.98
- relative viability (HARA; first compound 0.08 µM): 0.972
- relative viability (HARA; first compound 0.8 µM): 0.914
- relative viability (HARA; first compound 2.53 µM): 0.996
- relative viability (HARA; first compound 8 µM): 1.16
